Legend:
[1] = molecular target: T1, Fructose-1,6-bisphosphatase 1 (Homo sapiens, UniProt P09467); experiment: Inhibition of human liver FBPase expressed in Escherichia coli by spectrophotometry
T1 sequence (P09467 whole entry): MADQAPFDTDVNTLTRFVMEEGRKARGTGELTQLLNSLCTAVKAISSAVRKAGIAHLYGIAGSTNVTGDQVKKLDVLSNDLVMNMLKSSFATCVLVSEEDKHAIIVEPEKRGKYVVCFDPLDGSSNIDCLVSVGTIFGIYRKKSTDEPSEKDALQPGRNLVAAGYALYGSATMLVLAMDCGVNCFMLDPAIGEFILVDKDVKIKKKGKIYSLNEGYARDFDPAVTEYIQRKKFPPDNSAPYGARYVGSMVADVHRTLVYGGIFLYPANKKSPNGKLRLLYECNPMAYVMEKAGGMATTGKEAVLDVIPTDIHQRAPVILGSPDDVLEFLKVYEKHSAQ

[2] = molecular target: T2, Fructose-1,6-bisphosphatase 1 (Rattus norvegicus, UniProt P19112); experiment: Inhibition of rat liver FBPase
T2 sequence (P19112 whole entry): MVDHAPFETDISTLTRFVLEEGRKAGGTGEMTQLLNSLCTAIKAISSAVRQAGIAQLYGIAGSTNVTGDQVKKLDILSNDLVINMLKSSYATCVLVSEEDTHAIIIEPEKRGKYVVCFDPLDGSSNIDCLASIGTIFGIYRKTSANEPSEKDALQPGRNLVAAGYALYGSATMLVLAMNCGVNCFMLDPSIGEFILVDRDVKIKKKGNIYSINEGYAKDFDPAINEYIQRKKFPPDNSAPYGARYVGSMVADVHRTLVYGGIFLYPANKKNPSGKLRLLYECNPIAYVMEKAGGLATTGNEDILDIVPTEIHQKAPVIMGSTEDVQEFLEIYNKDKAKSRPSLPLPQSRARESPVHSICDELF

[3] = tested on: Hepatocyte; experiment: Inhibition of glucose production in rat primary hepatocytes treated for 15 to 30 mins prior to gluconeogenic substrate dihydroxyacetone addition; format: functional, cell-based
[4] = molecular target: T3, Fructose-1,6-bisphosphatase 1 (Homo sapiens) (UniProt P09467)
T3 sequence (whole entry): T1 sequence (P09467 whole entry)
Description: Displacement of [3H]AMP from human liver FBPase

[5] = Inhibition of New Zealand white rabbit liver phosphofructokinase; design: species or system Oryctolagus cuniculus
[6] = Inhibition of pig heart AMP deaminase; design: species or system Sus scrofa
[7] = tested on: Rattus norvegicus; experiment: Oral bioavailability in fasted Sprague-Dawley rat assessed as urinary excretion of phosphonic acid up to 300 mg/kg; format: ADME, organism-based, Urine; conditions: in vivo
[8] = molecular target: Adenosine kinase (Homo sapiens, UniProt P55263); experiment: Inhibition of human recombinant adenosine kinase expressed in Escherichia coli
[9] = Plasma concentration in overnight-fasted Sprague-Dawley rat at 20 mg/kg, ip after 1 hr; format: ADME, organism-based; design: dose 20 mg/kg, route intraperitoneal
[10] = tested on: Rattus norvegicus; experiment: Increase in fructose-1,6-bisphosphate level in overnight-fasted Sprague-Dawley rat liver at 20 mg/kg, ip relative to control; format: organism-based; design: dose 20 mg/kg, route intraperitoneal; conditions: in vivo
[11] = tested on: Rattus norvegicus; experiment: Reduction in blood glucose level in overnight-fasted Sprague-Dawley rat at 20 mg/kg, ip within 1 hr; format: organism-based; design: dose 20 mg/kg, route intraperitoneal; scale not given: the % may be the effect or the level left; conditions: in vivo
[12] = molecular target: T4, Glycogen phosphorylase, muscle form (Oryctolagus cuniculus, UniProt P00489); experiment: Inhibition of rabbit muscle glycogen phosphorylase
T4 sequence (P00489 whole entry): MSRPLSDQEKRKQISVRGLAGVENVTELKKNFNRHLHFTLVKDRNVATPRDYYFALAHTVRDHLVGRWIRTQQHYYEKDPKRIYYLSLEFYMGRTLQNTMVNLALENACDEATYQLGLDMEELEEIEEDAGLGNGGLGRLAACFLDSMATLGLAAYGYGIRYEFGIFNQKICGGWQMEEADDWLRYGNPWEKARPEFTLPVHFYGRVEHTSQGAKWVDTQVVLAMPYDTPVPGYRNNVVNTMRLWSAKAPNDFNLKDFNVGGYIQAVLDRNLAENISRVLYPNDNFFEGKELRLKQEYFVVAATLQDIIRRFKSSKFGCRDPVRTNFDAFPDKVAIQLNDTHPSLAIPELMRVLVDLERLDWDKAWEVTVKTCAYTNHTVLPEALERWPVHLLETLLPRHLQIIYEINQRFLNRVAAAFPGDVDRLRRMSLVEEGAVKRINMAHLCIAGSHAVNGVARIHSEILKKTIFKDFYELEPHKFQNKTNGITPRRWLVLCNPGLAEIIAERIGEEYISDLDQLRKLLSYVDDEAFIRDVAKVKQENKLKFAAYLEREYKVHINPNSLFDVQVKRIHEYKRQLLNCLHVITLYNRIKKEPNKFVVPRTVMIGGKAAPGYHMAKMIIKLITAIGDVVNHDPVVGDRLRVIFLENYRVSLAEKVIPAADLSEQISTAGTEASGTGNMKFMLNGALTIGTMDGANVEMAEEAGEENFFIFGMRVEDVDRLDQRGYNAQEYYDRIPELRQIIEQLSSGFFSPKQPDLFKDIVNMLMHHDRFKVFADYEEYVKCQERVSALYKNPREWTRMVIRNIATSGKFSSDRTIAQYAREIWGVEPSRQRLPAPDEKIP

[13] = tested on: Liver; experiment: Drug concentration in overnight-fasted Sprague-Dawley rat liver at 20 mg/kg, ip after 1 hr; format: ADME, organism-based; design: dose 20 mg/kg, route intraperitoneal; conditions: in vivo
[14] = tested on: Liver; experiment: Drug concentration in overnight-fasted Sprague-Dawley rat liver assessed as {5-[6-Amino-9-(2,2-dimethyl-propyl)-9H-purin-8-yl]-furan-2-yl}- phosphonic acid level at 50 mg/kg, po after 1 hr; format: ADME, organism-based; design: dose 50 mg/kg, route oral; conditions: in vivo
[15] = tested on: Liver; experiment: Drug concentration in overnight-fasted Sprague-Dawley rat liver assessed as {5-[6-Amino-9-(2,2-dimethyl-propyl)-9H-purin-8-yl]-furan-2-yl}- phosphonic acid level at 50 mg/kg, po after 2 hrs; format: ADME, organism-based; design: dose 50 mg/kg, route oral; conditions: in vivo

Adenosine kinase, sequence (P55263 whole entry): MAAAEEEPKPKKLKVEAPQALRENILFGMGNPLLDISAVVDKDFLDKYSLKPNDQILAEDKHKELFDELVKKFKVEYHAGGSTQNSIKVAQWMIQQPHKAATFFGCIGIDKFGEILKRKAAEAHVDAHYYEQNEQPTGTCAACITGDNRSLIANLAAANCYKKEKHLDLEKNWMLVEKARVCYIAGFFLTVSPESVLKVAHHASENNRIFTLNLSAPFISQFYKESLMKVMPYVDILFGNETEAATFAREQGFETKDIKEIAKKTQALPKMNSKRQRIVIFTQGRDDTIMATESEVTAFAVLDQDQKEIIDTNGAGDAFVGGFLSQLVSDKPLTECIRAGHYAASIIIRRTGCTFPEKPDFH

IC50 [1] | SMILES | other results
35 µM | Nc1ncnc2c1nc(NCCP(=O)(O)O)n2Cc1ccc2ccccc2c1 | 
100 µM | Nc1ncnc2c1nc(CCCP(=O)(O)O)n2CCc1ccccc1 | 
100 µM | Nc1ncnc2c1nc(C(=O)NCP(=O)(O)O)n2CCc1ccccc1 | 
100 µM | Nc1ncnc2c1nc(NCCP(=O)(O)O)n2CCc1ccccc1 | 
> 100 µM | Nc1ncnc2[nH]c(NCCP(=O)(O)O)nc12 | 
 | Nc1ncnc2c1nc(-c1ccc(P(=O)(O)O)o1)n2C1CCCC1 | IC50 [2]: > 20 µM; EC50 [3]: 24 µM
48 µM | Nc1ncnc2c1nc(-c1ccc(P(=O)(O)O)s1)n2CCc1ccccc1 | 
 | Nc1ncnc2c1nc(-c1ccc(P(=O)(OCCSSCCO)OCCSSCCO)o1)n2CCc1ccccc1 | EC50 [3]: > 500 µM
1.1 µM | CSc1nc(N)c2nc(-c3ccc(P(=O)(O)O)o3)n(CC(C)(C)C)c2n1 | IC50 [2]: 4 µM; EC50 [3]: 8.5 µM
> 1000 µM | Nc1ncnc2c1nc(S(=O)(=O)CCP(=O)(O)O)n2CCc1ccccc1 | 
> 100 µM | Nc1ncnc2c1nc(NCCC(=O)O)n2[C@@H]1O[C@H](CO)[C@@H](O)[C@H]1O | 
> 100 µM | Nc1ncnc2c1nc(NCC(=O)O)n2[C@@H]1O[C@H](CO)[C@@H](O)[C@H]1O | 
> 500 µM | Nc1ncnc2c1nc(CNCP(=O)(O)O)n2CCc1ccccc1 | 
100 µM | C[C@H]1O[C@@H](n2c(NCCP(=O)(O)O)nc3c(N)ncnc32)[C@H](O)[C@@H]1O | 
 | CC(=O)OC1CCCC(OP(=O)(OC2CCCC(OC(C)=O)C2)c2ccc(-c3nc4c(N)ncnc4n3CCc3ccccc3)o2)C1 (configuration not stated) | EC50 [3]: 400 µM
> 100 µM | CC(C)(C)Cn1c(Cn2ccnc2P(=O)(O)O)nc2c(N)ncnc21 | 
250 µM | CN(C)c1ncnc2c1nc(-c1ccc(P(=O)(O)O)o1)n2CCc1ccccc1 | 
150 µM | Nc1ncnc2c1nc(-c1ccc(S(=O)(=O)O)o1)n2CCc1ccccc1 | 
> 10 µM | CN(C)CC(C)(C)Cn1c(-c2ccc(P(=O)(O)O)o2)nc2c(N)ncnc21 | 
 | CC(C)(CCl)Cn1c(-c2ccc(P(=O)(O)O)o2)nc2c(N)ncnc21 | IC50 [2]: > 2 µM; EC50 [3]: 7.5 µM

IC50 [1] | SMILES | other results
 | Nc1ncnc2c1nc(-c1ccc(P3(=O)OCCSSCCO3)o1)n2CCc1ccccc1 | EC50 [3]: 250 µM
 | Nc1ncnc2c1nc(-c1ccc(P(=O)(O)O)o1)n2CCc1ccccc1 | EC50 [5]: > 200 µM; IC50 [6]: 6.7 µM; IC50 [2]: 40 µM; F [7]: < 5%; EC50 [3]: 5 µM; IC50 [8]: > 100 µM
> 100 µM | Nc1ncnc2c1nc(NCP(=O)(O)O)n2[C@@H]1O[C@H](CO)[C@@H](O)[C@H]1O | 
1.5 µM | Nc1ncnc2c1nc(-c1ccc(P(=O)(O)O)o1)n2C1CC1 | 
5 µM | CC(n1c(-c2ccc(P(=O)(O)O)o2)nc2c(N)ncnc21)C(C)(C)C (configuration not stated) | 
1.8 µM | CCn1c(-c2ccc(P(=O)(O)O)o2)nc2c(N)ncnc21 | 
 | Nc1ncnc2c1nc(-c1ccc(P(=O)(O)O)o1)n2CCC1CCCCC1 | ED50 [4]: 35 µM; IC50 [2]: 20 µM; EC50 [3]: 90 µM
5.5 µM | CC(C)(C)Cn1c(-c2ccc(P(=O)(O)O)o2)nc2c(N)nc(N)nc21 | 
 | COc1ccc(COP(=O)(OCc2ccc(OC)c(C#N)c2)c2ccc(-c3nc4c(N)ncnc4n3CCc3ccccc3)o2)cc1C#N | EC50 [3]: > 100 µM
> 100 µM | Nc1ncnc2c1nc(NCCCP(=O)(O)O)n2[C@@H]1O[C@H](CO)[C@@H](O)[C@H]1O | 
140 µM | Nc1ncnc2c1nc(NCCOP(=O)(O)O)n2[C@@H]1O[C@H](CO)[C@@H](O)[C@H]1O | 
> 1000 µM | CC(Cc1nc2c(N)ncnc2n1CCc1ccccc1)[PH](=O)O (configuration not stated) | 
 | CC(C)(C)Cn1c(-c2ccc(P(=O)(O)O)o2)nc2c(N)ncnc21 | concentration at 1 h [9]: 38.5 µM; Activity [10]: 10; Activity [11]: 65%; EC50 [12]: > 100 µM; EC50 [5]: > 100 µM; IC50 [6]: 390 µM; F [7]: 1.6%; EC50 [3]: 90 µM; IC50 [8]: > 100 µM; Drug uptake [13]: 51.3 nmol/g
> 100 µM | Nc1ncnc2c1nc(-c1ccc(C(=O)O)o1)n2CCc1ccccc1 | 
> 1000 µM | Nc1ncnc2c1nc(CCO[PH](=O)O)n2CCc1ccccc1 | 
> 10 µM | Cn1c(-c2nc3c(N)ncnc3n2CC(C)(C)C)ccc1P(=O)(O)O | 
> 1000 µM | Nc1ncnc2c1nc(CCC[PH](=O)O)n2CCc1ccccc1 | 
91 µM | Nc1ncnc2c1nc(NCCP(=O)(O)O)n2Cc1ccccc1 | 
 | CC(C)C(=O)OCOP(=O)(OCOC(=O)C(C)C)c1ccc(-c2nc3c(N)ncnc3n2CCc2ccccc2)o1 | EC50 [3]: 25 µM
> 10 µM | CC(C)(C)Cn1c(-c2coc(P(=O)(O)O)c2)nc2c(N)ncnc21 | 

IC50 [1] | SMILES | other results
> 100 µM | Nc1ncnc2c1nc(/C=C/C(=O)O)n2[C@@H]1O[C@H](CO)[C@@H](O)[C@H]1O | 
40 µM | Nc1ncnc2c1nc(CCOP(=O)(O)O)n2CCc1ccccc1 | 
1.6 µM | CC(C)(C)CCn1c(-c2ccc(P(=O)(O)O)o2)nc2c(N)ncnc21 | 
 | CSc1nc(N)c2nc(-c3ccc(P(=O)(O)O)o3)n(CC(C)C)c2n1 | IC50 [2]: > 20 µM; EC50 [3]: > 25 µM
 | COc1cc2c(c(OC)c1OC)C(=O)OC2OP(=O)(OC1OC(=O)c2c1cc(OC)c(OC)c2OC)c1ccc(-c2nc3c(N)ncnc3n2CCc2ccccc2)o1 (configuration not stated) | EC50 [3]: 75 µM
> 10 µM | Cn1c(P(=O)(O)O)cnc1-c1nc2c(N)ncnc2n1CC(C)(C)C | 
70 µM | Nc1ncnc2c1nc(-c1ccc(P(=O)(O)O)o1)n2CC(c1ccccc1)c1ccccc1 | 
28 µM | CC(C)Cn1c(-c2ccc(P(=O)(O)O)o2)nc2c(N)nc(S(C)(=O)=O)nc21 | 
145 µM | Nc1ncnc2c1nc(SCCP(=O)(O)O)n2CCc1ccccc1 | 
 | CC(C)(C)Cn1c(-c2ccc(P(=O)(OCOC(=O)C(C)(C)C)OCOC(=O)C(C)(C)C)o2)nc2c(N)ncnc21 | F [7]: 5.3%
50 µM | O=P(O)(O)c1ccc(-c2nc3c(Cl)ncnc3n2CCc2ccccc2)o1 | 
> 100 µM | Nc1ncnc2c1nc(CCC(=O)O)n2[C@@H]1O[C@H](CO)[C@@H](O)[C@H]1O | 
 | CC(C)(CO)Cn1c(-c2ccc(P(=O)(O)O)o2)nc2c(N)ncnc21 | IC50 [2]: > 20 µM; EC50 [3]: 50 µM
23 µM | Nc1ncnc2c1nc(COCP(=O)(O)O)n2CCc1ccccc1 | 
1.5 µM | CC(C)Cn1c(-c2ccc(P(=O)(O)O)o2)nc2c(N)ncnc21 | IC50 [2]: 7 µM; EC50 [3]: 18 µM
100 µM | Nc1ncnc2c1nc(/C=C/CP(=O)(O)O)n2CCc1ccccc1 | 
 | CC(C)C(=O)OCOP(=O)(OCOC(=O)C(C)C)c1ccc(-c2nc3c(N)ncnc3n2CC(C)(C)C)o1 | Drug uptake [14]: 3.5 nmol/g; F [7]: 8.1%; EC50 [3]: 3 µM; Drug uptake [15]: 2 nmol/g
50 µM | CNc1ncnc2c1nc(-c1ccc(P(=O)(O)O)o1)n2CCc1ccccc1 | 

SMILES | IC50 [1] | other results
NC(=O)c1ncn([C@@H]2O[C@H](COP(=O)(O)O)[C@@H](O)[C@H]2O)c1N | 12 µM | ED50 [4]: 250 µM
